SMILES strings stand for the structures. Where only a bound is given, the exact number is not on record here.

The target of this assay is human NaV subtype, like NaV 1.7 (Homo sapiens, UniProt Q15858). The experiment in a line: E-VIPR optical membrane potential assay with electrical stimulation. The format is cell-based. As to conditions: active against one or more sodium channels; Table 3 does not name the assay or NaV subtype; read-out: Binned Activity Data (IC50).
Chain of human NaV subtype, like NaV 1.7 (Q15858 whole entry): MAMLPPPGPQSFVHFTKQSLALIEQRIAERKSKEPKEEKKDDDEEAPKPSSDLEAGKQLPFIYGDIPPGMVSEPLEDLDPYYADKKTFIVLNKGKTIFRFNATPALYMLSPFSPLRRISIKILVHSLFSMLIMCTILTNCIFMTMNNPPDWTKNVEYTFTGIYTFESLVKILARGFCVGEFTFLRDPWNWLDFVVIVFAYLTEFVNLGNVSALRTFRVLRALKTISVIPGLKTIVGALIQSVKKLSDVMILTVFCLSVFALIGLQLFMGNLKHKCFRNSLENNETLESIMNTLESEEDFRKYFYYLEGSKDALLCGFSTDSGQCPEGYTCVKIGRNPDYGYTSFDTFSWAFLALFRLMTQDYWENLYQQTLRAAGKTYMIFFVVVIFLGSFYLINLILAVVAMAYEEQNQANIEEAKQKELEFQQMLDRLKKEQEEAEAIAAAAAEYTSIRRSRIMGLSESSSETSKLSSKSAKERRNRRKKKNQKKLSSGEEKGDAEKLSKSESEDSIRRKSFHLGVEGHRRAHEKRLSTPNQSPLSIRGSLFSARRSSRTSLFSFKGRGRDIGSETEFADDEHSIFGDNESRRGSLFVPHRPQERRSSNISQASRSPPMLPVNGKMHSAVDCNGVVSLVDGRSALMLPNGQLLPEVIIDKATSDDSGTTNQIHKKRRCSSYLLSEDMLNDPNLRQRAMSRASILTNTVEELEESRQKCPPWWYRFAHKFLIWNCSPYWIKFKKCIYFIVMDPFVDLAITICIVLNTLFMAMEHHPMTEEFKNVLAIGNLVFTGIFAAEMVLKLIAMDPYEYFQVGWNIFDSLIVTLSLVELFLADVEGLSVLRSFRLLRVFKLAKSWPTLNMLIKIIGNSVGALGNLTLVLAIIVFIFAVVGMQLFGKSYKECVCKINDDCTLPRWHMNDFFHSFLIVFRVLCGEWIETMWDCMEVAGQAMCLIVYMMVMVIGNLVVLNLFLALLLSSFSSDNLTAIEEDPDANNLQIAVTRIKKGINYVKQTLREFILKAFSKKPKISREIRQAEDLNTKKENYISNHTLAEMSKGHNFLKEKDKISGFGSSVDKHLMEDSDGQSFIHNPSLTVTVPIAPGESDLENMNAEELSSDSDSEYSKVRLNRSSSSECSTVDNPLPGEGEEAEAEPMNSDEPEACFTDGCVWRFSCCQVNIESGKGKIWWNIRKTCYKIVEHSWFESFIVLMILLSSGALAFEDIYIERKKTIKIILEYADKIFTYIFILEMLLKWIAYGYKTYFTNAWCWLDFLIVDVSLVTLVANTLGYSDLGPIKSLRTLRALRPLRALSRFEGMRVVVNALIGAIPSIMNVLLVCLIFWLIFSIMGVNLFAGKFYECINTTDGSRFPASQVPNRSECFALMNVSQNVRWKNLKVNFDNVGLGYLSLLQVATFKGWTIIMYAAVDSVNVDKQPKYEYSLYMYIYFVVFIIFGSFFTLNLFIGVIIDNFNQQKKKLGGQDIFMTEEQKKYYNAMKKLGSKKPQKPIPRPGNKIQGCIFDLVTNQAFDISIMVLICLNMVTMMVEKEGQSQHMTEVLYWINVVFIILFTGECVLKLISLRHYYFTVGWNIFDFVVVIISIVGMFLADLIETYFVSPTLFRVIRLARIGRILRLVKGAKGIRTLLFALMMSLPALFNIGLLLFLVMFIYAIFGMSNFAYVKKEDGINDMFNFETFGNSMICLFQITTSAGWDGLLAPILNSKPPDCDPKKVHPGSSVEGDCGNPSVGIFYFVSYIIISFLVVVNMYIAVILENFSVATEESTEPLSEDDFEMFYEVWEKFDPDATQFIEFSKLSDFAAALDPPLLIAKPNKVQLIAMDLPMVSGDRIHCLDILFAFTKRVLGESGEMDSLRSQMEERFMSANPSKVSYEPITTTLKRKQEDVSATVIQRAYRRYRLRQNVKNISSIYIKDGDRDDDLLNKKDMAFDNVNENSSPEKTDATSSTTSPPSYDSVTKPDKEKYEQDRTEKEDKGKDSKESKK
For the compound `CC(=O)c1ccc2n1CC(C)(C)NC21CCN(C(=O)c2ccc(OC(C)C)c(Cl)c2)CC1` [Compound 277], the IC50 was at most 2000 nM.

With `CC(C)C(O)c1ccc(C(=O)N2CCC3(CC2)c2ccc(C(F)(F)F)n2CCN3C)cc1` (stereo not drawn) [Compound 150], the IC50 is at most 2000 nM.

As to `COc1ccc(C(=O)N2CCC3(CC2)NC(C)(C)Cn2c(C(=O)C(F)(F)F)ccc23)cc1C` [Compound 612], the concentration for half-maximal inhibition (IC50) was at most 2000 nM.

On to `CN1CCn2c(C(=O)C(F)(F)F)ccc2C12CCN(C(=O)c1ccc(C(C)(C)O)cc1)CC2` [Compound 358], for which the half-inhibitory concentration (IC50) lay within 2000 to 5000 nM.

In the case of `CCOc1ncccc1C(=O)N1CCC2(CC1)c1ccc(C(F)(F)F)n1CCN2C` [Compound 297], the concentration for half-maximal inhibition (IC50) was at most 2000 nM.

As to `COc1ccccc1C(=O)N1CCC2(CC1)c1ccc(C(F)(F)F)n1CCN2C` [Compound 99], the IC50 lay within 2000 to 5000 nM.

In the case of `COc1cc(C(=O)N2CCC3(CC2)c2ccc(C(F)(F)F)n2CCN3C2CC2)ccc1OC(C)C` [Compound 690], the half-inhibitory concentration (IC50) was at most 2000 nM.

Take `CC(=O)c1ccc2n1CCN(C)C21CCN(C(=O)c2ccc(COCC(F)(F)F)cc2)CC1` [Compound 447]: the IC50 was over 5000 nM.

Consider `CCCOc1ccc(C(=O)N2CCC3(CC2)c2ccc(C(F)(F)F)n2CCN3C)cc1OC` [Compound 190], for which the IC50 was at most 2000 nM.

`CC(C)Oc1ccc(C(=O)N2CCC3(CC2)c2ccc(C(=O)C(C)(C)C)n2CCN3C)cc1Cl` [Compound 243]: the IC50 was at most 2000 nM.

With `Cc1cc(C(=O)N2CCC3(CC2)c2ccc(C(=O)C(F)(F)F)n2CCN3C)ccc1S(=O)(=O)C(C)C` [Compound 508], the half-inhibitory concentration (IC50) was at most 2000 nM.

Turning to `CCOc1ccc(C(=O)N2CCC3(CC2)NC(C)(C)Cn2c(C(=O)C(F)(F)F)ccc23)cc1Cl` [Compound 636], the IC50 was at most 2000 nM.

Turning to `CC(C)Oc1ccc(C(=O)N2CCC3(CC2)c2ccc(C(=O)C(C)C)n2CCN3C)cc1Cl` [Compound 674], the 50% inhibitory concentration (IC50) is at most 2000 nM.

As for `COc1cc(C(=O)N2CCC3(CC2)c2c(F)cc(C(F)(F)F)n2CCN3C)ccc1OC(C)C` [Compound 118], the half-maximal inhibitory concentration (IC50) is at most 2000 nM.

Turning to `CN1CCn2c(C(F)(F)F)ccc2C12CCN(C(=O)c1ccc(OCC(C)(C)O)cc1)CC2` [Compound 637], the half-inhibitory concentration (IC50) lay within 2000 to 5000 nM.

Turning to `O=C(c1ccc(S(=O)(=O)NC2CC2)cc1)N1CCC2(CC1)c1ccc(C(F)(F)F)n1CCN2C1CC1` [Compound 708], the IC50 was at most 2000 nM.

With `Cc1cc(C(=O)N2CCC3(CC2)c2ccc(C(F)(F)F)n2CCN3C)ccc1OC(C)C` [Compound 580], the IC50 is at most 2000 nM.

Turning to `Cc1cc(C(=O)N2CCC3(CC2)c2c(F)cc(C(F)(F)F)n2CCN3C)ccc1OCCCO` [Compound 249], the IC50 is at most 2000 nM.

Turning to `CN1CCn2c(C(F)(F)F)cc(F)c2C12CCN(C(=O)c1ccc(C3(O)CCC3)cc1)CC2` [Compound 242], the half-inhibitory concentration (IC50) is at most 2000 nM.

Regarding `Cc1cccc(C(=O)N2CCC3(CC2)c2ccc(C(F)(F)F)n2CCN3C)c1` [Compound 109], the IC50 is over 5000 nM.

`CC(C)Oc1ccc(C(=O)N2CCC3(CC2)c2c(F)cc(C(F)(F)F)n2CCN3C)cc1` [Compound 562]: the concentration for half-maximal inhibition (IC50) is at most 2000 nM.

As to `Cc1cc(C(=O)N2CCC3(CC2)c2ccc(C(F)(F)F)n2CCN3C)ccc1S(=O)(=O)NC1CC1` [Compound 28], the IC50 is at most 2000 nM.

Turning to `CC(C)Oc1ccc(C(=O)N2CCC3(CC2)NCCn2c(C(F)(F)F)ccc23)cc1CO` [Compound 549], the IC50 is at most 2000 nM.

As for `CC(C)CCOc1ccc(C(=O)N2CCC3(CC2)NC(C)(C)Cn2cc(F)c(F)c23)cc1` [Compound 79], the half-inhibitory concentration (IC50) was over 5000 nM.

`CCCOc1ccc(C(=O)N2CCC3(CC2)c2c(F)cc(C(F)(F)F)n2CCN3C)cc1` [Compound 18]: the IC50 is at most 2000 nM.

With `CC[C@@H](C)Oc1ccc(C(=O)N2CCC3(CC2)c2ccc(C(F)(F)C(F)(F)F)n2CCN3C)cc1OC` [Compound 412], the 50% inhibitory concentration (IC50) is at most 2000 nM.

In the case of `Cc1cc(C(=O)N2CCC3(CC2)c2ccc(C(=O)C(F)(F)F)n2C(C)(C)CN3C)ccc1OC(C)C` [Compound 437], the IC50 was at most 2000 nM.

As for `CCCOc1ccc(C(=O)N2CCC3(CC2)c2c(F)cc(C(F)(F)F)n2CCN3C)cc1OC` [Compound 397], the IC50 is at most 2000 nM.

With `Cc1cc(C(F)F)n2ncc(C(=O)N3CCC4(CC3)c3ccc(C(=O)C(C)(C)C)n3CCN4C)c2n1` [Compound 248], the half-inhibitory concentration (IC50) is at most 2000 nM.

Regarding `Cc1cc(C(=O)N2CCC3(CC2)c2c(F)cc(C(F)(F)F)n2CCN3C)ccc1C1(O)CCC1` [Compound 384], the IC50 is at most 2000 nM.

For the compound `CC(=O)c1ccc2n1CCN(C)C21CCN(C(=O)c2ccc(OCc3ccccc3)cc2)CC1` [Compound 604], the 50% inhibitory concentration (IC50) is at most 2000 nM.

Turning to `Cc1cc(C(=O)N2CCC3(CC2)NC(C)(C)Cn2c(C(=O)C(F)(F)F)ccc23)ccc1OC(C)C` [Compound 131], the half-inhibitory concentration (IC50) is at most 2000 nM.

`CN1CCn2c(C(=O)C(F)(F)F)ccc2C12CCN(C(=O)c1ccc(Cl)c(O)c1)CC2` [Compound 271]: the IC50 was over 5000 nM.

For the compound `COc1ccc(C(=O)N2CCC3(CC2)c2ccc(C(=O)C(F)(F)F)n2CCN3C)cc1C` [Compound 663], the half-inhibitory concentration (IC50) was at most 2000 nM.

For `CC1(C)Cn2c(C(=O)C(F)(F)F)ccc2C2(CCN(C(=O)c3ccc(S(=O)(=O)C(C)(C)C)cc3)CC2)N1` [Compound 208], the 50% inhibitory concentration (IC50) was at most 2000 nM.

Turning to `COc1cc(C(=O)N2CCC3(CC2)c2ccc(C(=O)C(F)(F)F)n2C(C)CN3C)ccc1OCCOC(F)(F)F` (stereo not drawn) [Compound 114], the IC50 is at most 2000 nM.

As to `COc1ccc(C(=O)N2CCC3(CC2)c2ccc(C(=O)C(C)C)n2CCN3C)cc1C` [Compound 338], the IC50 is at most 2000 nM.

With `CN1CCn2c(ccc2C(F)(F)C(F)(F)F)C12CCN(C(=O)c1ccc(S(=O)(=O)C(C)(C)C)cc1)CC2` [Compound 464], the half-maximal inhibitory concentration (IC50) was at most 2000 nM.

For the compound `Cc1ccnc2c(C(=O)N3CCC4(CC3)c3ccc(C(F)(F)F)n3CCN4C)cnn12` [Compound 731], the 50% inhibitory concentration (IC50) lay within 2000 to 5000 nM.

As for `COc1ccc(C(=O)N2CCC3(CC2)c2ccc(Cl)n2CCN3C)cc1C(F)(F)F` [Compound 624], the half-maximal inhibitory concentration (IC50) fell in the range of 2000 to 5000 nM.

With `CCCOc1ccc(C(=O)N2CCC3(CC2)c2ccc(C(C)=O)n2CCN3C)cc1` [Compound 507], the IC50 was over 5000 nM.

Regarding `COc1cc(C(=O)N2CCC3(CC2)NC(C)(C)Cn2c(C(=O)C(F)(F)F)ccc23)ccc1-c1ccccc1` [Compound 589], the IC50 is at most 2000 nM.

For `Cc1cc(C(=O)N2CCC3(CC2)c2ccc(C(F)(F)F)n2CCN3C(=O)N(C)C)ccc1OC(C)C` [Compound 138], the half-inhibitory concentration (IC50) was at most 2000 nM.

As to `CC(C)Oc1ccc(C(=O)N2CCC3(CC2)c2ccc(C(F)(F)F)n2CCN3C)cc1F` [Compound 568], the IC50 was at most 2000 nM.

Turning to `CC(=O)c1cc2n(c1)CC(C)(C)NC21CCN(C(=O)c2ccc(OC(C)C)c(Cl)c2)CC1` [Compound 30], the half-maximal inhibitory concentration (IC50) is over 5000 nM.

For `CC(C)Oc1ccc(C(=O)N2CCC3(CC2)c2c(F)cc(C(F)(F)F)n2CCN3C)cc1C#N` [Compound 134], the IC50 was at most 2000 nM.

Regarding `COc1cc(C(=O)N2CCC3(CC2)c2ccc(C(F)(F)F)n2CCN3C)ccc1C(C)(C)O` [Compound 213], the IC50 was at most 2000 nM.

With `COc1cc(C(=O)N2CCC3(c4ccc(C(F)(F)F)n4CCN3C)C(C)C2)ccc1OC(C)C` (stereo not drawn) [Compound 545], the half-inhibitory concentration (IC50) lay within 2000 to 5000 nM.

The IC50 is the concentration needed to halve the response being measured.
